Measured values as given in patent US12702657B2, “Treatment and prevention of dengue disease” (Janssen Pharmaceuticals, Inc., priority 2019, dated 2026).

Tests used:
DENV-2 Rega lab strain = test: Lethal DENV challenge study (survival study) in AG129 mice with 4G2 antibody-dependent enhancement; format: in vivo; conditions: monitored max. 25 days, 10^6 PFU
Description: In the lethal DENV challenge study (or survival study), antibody-dependent-enhancement (ADE) induced dengue disease is imitated by injecting AG129 mice (n=10 per group) i.p. with Anti-Flavivirus Group Antigen Antibody, clone D1-4G2-4-15 (‘4G2’; Millipore), one day prior to challenge with DENV-2 Rega lab strain (1×10^6 PFU, i.p.). Animals were treated by administering compound (b) by oral gavage with a first administration at one hour prior to infection. The treatment continued for five consecutive days with one administration of compound (b) every 12 hours (twice daily or b.i.d.). (FIG. 15X).
The mice were divided in several groups (n=8/group for the viremia study and n=10/group for the survival study) representing the following treatment regimens: • (i) vehicle, 80%/20% PEG400/H2O • (ii) compound (b): 30 mg/kg/dose b.i.d. • (iii) compound (b): 10 mg/kg/dose b.i.d. • (iv) compound (b): 3 mg/kg/dose b.i.d. • (v) compound (b): 1 mg/kg/dose b.i.d.
Next, the impact of compound (b) was assessed on virus-induced disease and mortality when dosed (orally, b.i.d.) for just 5 consecutive days starting at the day of infection (survival study). Animals were monitored for a maximum period of 25 days. All but one (19 of 20) vehicle-treated mice had to be euthanized. At a dose of 30 mg/kg, 90% of the mice survived the viral challenge and at doses of 10, 3 and 1 mg/kg, the survival rate was respectively 80%, 85% and 75% (FIG. 15Z).

DENV-2/Rega lab strain = test: AG129 mouse model, low viral input (10^2 PFU), PrEP, post-exposure prophylaxis and treatment (delayed treatment start); format: in vivo, AG129 mice; conditions: 30 mg/kg/dose b.i.d.; for viral load at viral rebound: start 2 days after infection (group 4)
Description: AG129 mice, age- and sex-matched (6 to 9 weeks of age), were used to assess the activity of compound (b) on viral RNA levels in the serum of the mice. The animals were infected intraperitoneally (i.p.) with 1×10^2 PFU DENV-2/Rega lab strain and treated for five consecutive days with compound (b) which was administered by oral gavage. Compound (b) was administered every 12 hours (twice daily or b.i.d.).
The mice were divided in six treatment groups (n=8/group) representing the following treatment regimens: • (i) Vehicle 80%/20% PEG400/H2O (group 1), • (ii) 30 mg/kg/dose compound (b) b.i.d.: first administration 1 hour before infection (group 2), • (iii) 30 mg/kg/dose compound (b) b.i.d., first administration 1 day after infection (group 3), • (iv) 30 mg/kg/dose compound (b) b.i.d., first administration 2 days after infection (group 4), • (v) 30 mg/kg/dose compound (b) b.i.d., first administration 3 days after infection (group 5), • (vi) 30 mg/kg/dose compound (b) b.i.d., first administration 4 days after infection (group 6), • (vii) 30 mg/kg/dose compound (b) b.i.d., first administration 5 days after infection (group 7), • (viii) 30 mg/kg/dose compound (b) b.i.d., first administration 6 days after infection (group 8).
Blood for viral RNA load detection was collected from mice in two alternating sub-groups. Each sub-group comprised half of the mice (n/2=4) from each of the treatment groups (i) to (viii). Blood was collected from a first sub-group at days 2, 4, 6, 8 and 12 p.i. and from a second sub-group at days 3, 5, 7, 9 and 14 p.i. At day 12 p.i., half of the mice in each treatment group (n=4/group) were sacrificed. The remaining mice in each treatment group (n=4/group) were sacrificed at day 14 p.i. (FIG. 17Y).

DENV-2/16681 = test: Pre-exposure prophylaxis in non-human primate model against DENV-2/16681; format: in vivo, rhesus monkeys (Macaca mulatta); conditions: for reduction in median peak DENV RNA compared with vehicle, significance / median reduction in DENV peak RNA levels compared with vehicle control: Bayesian nonlinear dose-response model; for onset of DENV RNA and peak RNA / DENV RNA throughout the study period (up to day 28): day -1 to day 10; for onset of DENV RNA and peak RNA: in some animals; for median reduction in DENV peak RNA levels compared with vehicle control: estimated
Description: Compound (a) was tested in a non-human primate (NHP) model against DENV-2/16681. The setup of the experiment was designed as a pre-exposure prophylaxis (PreP) study. Oral administration of compound (a) started one day before experimental infection (day −1) and continued with daily administrations until 10 days post-infection. On day 0, the animals were infected by intradermal inoculation with 100 TCID50 of DENV-2/16681 virus in a total volume of 0.1 mL (FIG. 11).
The rhesus monkeys were divided in 7 groups representing the following treatment regimens: • (i) Vehicle 100% PEG400 (n=5) • (ii) Group 1: 0.01 mg/kg/dose, q.d. (n=3), • (iii) Group 2: 0.18 mg/kg/dose, q.d. (n=3), • (iv) Group 3: 3 mg/kg/dose, q.d. (n=3), • (v) Group 4: 0.024 mg/kg/dose, q.d. (n=4), • (vi) Group 5: 0.09 mg/kg/dose, q.d. (n=4), • (vii) Group 6: 0.93 mg mg/kg/dose, q.d. (n=4).
The antiviral activity of compound (a) in a prophylactic setting is being assessed in DENV-2/16681 infected rhesus monkeys (Macaca mulatta). Blood samples were taken on a daily basis from day 0 until day 11, and on day 14 and day 28. DENV RNA was measured using real-time qPCR as described by Santiago et al. (2013). Results from compound (a) doses of 0.01, 0.024, 0.09, 0.18, 0.93 and 3 mg/kg, administered once daily from day 1 before infection until day 10 post infection, are shown in FIGS. 12A and B.
Based on a Bayesian nonlinear dose-response statistical model, the peak viral load reduction compared with vehicle was estimated for each dose group. […] A dose dependent median reduction in DENV peak RNA levels of 0.78, 1.91, 4.73 and 6.76 log10 genome copy equivalents (GCE) per milliliter (GCE/mL) plasma compared with vehicle control was estimated with the 0.09, 0.18, 0.93 and 3 mg/kg doses, respectively (Table 1).

[1] = first administration 4 days after infection (group 6)
[2] = first administration 5 days after infection (group 7)

COc1cc(NC(C(=O)N2CCc3ccc(OC(F)(F)F)cc32)c2ccc(Cl)cc2)cc(OCCCC(=O)O)c1 (centres unmarked) [compound (b)]
survival rate (DENV-2 Rega lab strain; 1 mg/kg b.i.d. orally for 5 days): 75% | survival rate (DENV-2 Rega lab strain; 3 mg/kg b.i.d. orally for 5 days): 85% | survival rate (DENV-2 Rega lab strain; 10 mg/kg b.i.d. orally for 5 days): 80% | survival rate (DENV-2 Rega lab strain; 30 mg/kg b.i.d. orally for 5 days): 90% | viral RNA in the serum (DENV-2/Rega lab strain; first administration 1 hour before infection (group 2)): undetectable levels | viral RNA in the serum (DENV-2/Rega lab strain; first administration 1 day after infection (group 3)): undetectable levels | viral RNA in the serum (DENV-2/Rega lab strain; first administration 2 days after infection (group 4), except two measurements): undetectable levels | viral load until day 9 post infection (DENV-2/Rega lab strain; first administration 3 days after infection (group 5)): undetectable viral load | peak viral load reduction (DENV-2/Rega lab strain; [1]): 1.1 log10 copies/mL | time to undetectable viral load compared with vehicle treated mice (DENV-2/Rega lab strain; [1]): undetectable viral load was reached earlier | peak viral load reduction (DENV-2/Rega lab strain; [2]): 0.7 log10 copies/mL | time to undetectable viral load compared with vehicle treated mice (DENV-2/Rega lab strain; [2]): undetectable viral load was reached earlier | time to undetectable viral load compared with vehicle treated mice (DENV-2/Rega lab strain; first administration 6 days after infection (group 8)): undetectable viral load was reached earlier | viral load at viral rebound (DENV-2/Rega lab strain; day 9 post infection): 3.0 log10 copies/mL | viral load at viral rebound (DENV-2/Rega lab strain; day 14 post infection): 4.7 log10 copies/mL | viral RNA detected (DENV-2/Rega lab strain; start 3 days after infection (group 5), day 12 post infection): 5.0 log10 copies/mL

COc1cc(NC(C(=O)c2c[nH]c3ccc(OC(F)(F)F)cc23)c2ccc(Cl)cc2OC)cc(S(C)(=O)=O)c1 (centres unmarked) [compound (a)]
reduction in median peak DENV RNA compared with vehicle, significance (DENV-2/16681; 0.01 mg/kg q.d. oral): No statistically significant reduction | reduction in median peak DENV RNA compared with vehicle, significance (DENV-2/16681; 0.024 mg/kg q.d. oral): No statistically significant reduction | onset of DENV RNA and peak RNA (DENV-2/16681; 0.09 mg/kg q.d. oral): delayed onset of DENV RNA and peak RNA | median reduction in DENV peak RNA levels compared with vehicle control (DENV-2/16681; 0.09 mg/kg q.d. oral): 0.78 log10 GCE/mL | onset of DENV RNA and peak RNA (DENV-2/16681; 0.18 mg/kg q.d. oral): delayed onset of DENV RNA and peak RNA | median reduction in DENV peak RNA levels compared with vehicle control (DENV-2/16681; 0.18 mg/kg q.d. oral): 1.91 log10 GCE/mL | DENV RNA throughout the study period (up to day 28) (DENV-2/16681; 0.93 mg/kg q.d. oral): No DENV RNA was detectable | median reduction in DENV peak RNA levels compared with vehicle control (DENV-2/16681; 0.93 mg/kg q.d. oral): 4.73 log10 GCE/mL | DENV RNA throughout the study period (up to day 28) (DENV-2/16681; 3 mg/kg q.d. oral): No DENV RNA was detectable | median reduction in DENV peak RNA levels compared with vehicle control (DENV-2/16681; 3 mg/kg q.d. oral): 6.76 log10 GCE/mL
